Reference: the supplement of paper PMC7017272
± gives the standard deviation of the averaged measurements. Each block holds one compound with its values, some of them ahead of it.

Key:
Conditions in all cases: treatment time: 3 days
UT-SCC-24B [1] = assay: relative IC50 (midpoint of the fitted curve; maximal inhibition may be below 50%); higher = less potent
Summary of the method: (§1)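 Viability of HPV-negative HNSCC cell lines was measured by CellTiter-Glo 2.0 luminescence. Cells were seeded at 500 cells/well in 384-well plates on plastic, on Matrigel- or Myogel-coated wells (500 µg/mL), or embedded in Matrigel or Myogel plus rat collagen I, then given compounds at five 10-fold concentrations for 3 days, with signals normalised to vehicle (0.1% DMSO) and cell-killing control wells. Fitting of percent-inhibition dose–response curves in the FIMM pipeline yielded IC50, maximal inhibition and drug sensitivity score.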

UT-SCC-73 = assay: as above
Summary of the method: as §1

UT-SCC-42A = assay: as above
Summary of the method: as §1

UT-SCC-40 = assay: as above
Summary of the method: as §1

UT-SCC-81 = assay: as above
Summary of the method: as §1

UT-SCC-28 = assay: as above
Summary of the method: as §1

UT-SCC-42B = assay: as above
Summary of the method: as §1

UT-SCC-44 = assay: as above
Summary of the method: as §1

UT-SCC-106A = assay: as above
Summary of the method: as §1

UT-SCC-24A [2] = assay: relative IC50 (midpoint of the fitted curve; maximal inhibition may be below 50%); higher = less potent
Experimental: (§2)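 HNSCC cell lines (500 cells/well, 384-well) were cultured on plastic, on top of (2D) or embedded (3D) in Matrigel or human leiomyoma matrix Myogel (500 ug/mL; Myogel 3D mixed with rat collagen I). Cells were treated for 3 days with 5 ten-fold concentrations of each drug, and viability was read by CellTiter-Glo. Viability was normalised to DMSO (0% inhibition) and 100 uM benzethonium chloride (100% inhibition) controls and fitted with the FIMM DSRT pipeline to give IC50 (nM), maximal % inhibition and the drug sensitivity score (DSS). Suffixes _1/_2/_3 on drug names are replicates.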

UT-SCC-24A [3] = assay: maximal % inhibition of viability relative to DMSO; higher = stronger effect
Experimental: as §2

UT-SCC-24A [4] = assay: drug sensitivity score (DSS); higher = more sensitive
Experimental: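 HNSCC cell lines (500 cells/well, 384-well) were cultured on plastic, on top of (2D) or embedded (3D) in Matrigel or human leiomyoma matrix Myogel (500 ug/mL; Myogel 3D mixed with rat collagen I). Cells were treated for 3 days with 5 ten-fold concentrations of each drug, and viability was read by CellTiter-Glo. Suffixes _1/_2/_3 on drug names are replicates.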

UT-SCC-24B [5] = assay: drug sensitivity score (DSS); higher = more sensitive; extreme values may be limits of the assay
Summary of the method: as §1

UT-SCC-14 [6] = assay: as above
Summary of the method: as §1

UT-SCC-14 [7] = assay: relative IC50 (midpoint of the fitted curve; maximal inhibition may be below 50%); higher = less potent
Summary of the method: as §1

UT-SCC-8 = assay: as above
Summary of the method: as §1

[8] = culture condition: embedded in Matrigel
[9] = culture condition: on top of Matrigel
[10] = culture condition: plastic 2D (no matrix)
[11] = culture condition: on top of Myogel
[12] = culture condition: embedded in Myogel + collagen I

relative IC50 (UT-SCC-24B [1]; [8]): 0.115 µM
relative IC50 (UT-SCC-24B [1]; [9]): 0.101 µM
relative IC50 (UT-SCC-24B [1]; [10]): 0.069 µM
relative IC50 (UT-SCC-73; [8]): 0.0282 µM
relative IC50 (UT-SCC-73; [9]): 0.0237 µM
relative IC50 (UT-SCC-73; [11]): 0.0653 µM
relative IC50 (UT-SCC-73; [10]): 0.0279 µM
relative IC50 (UT-SCC-42A; [8]): 0.0138 µM
relative IC50 (UT-SCC-42A; [9]): 0.00875 µM
relative IC50 (UT-SCC-42A; [11]): 0.0149 µM
relative IC50 (UT-SCC-42A; [10]): 0.0255 µM
relative IC50 (UT-SCC-40; [8]): 0.0165 µM
relative IC50 (UT-SCC-40; [9]): 0.0394 µM
relative IC50 (UT-SCC-40; [11]): 0.054 µM
relative IC50 (UT-SCC-40; [10]): 0.0517 µM
relative IC50 (UT-SCC-81; [8]): 0.00922 µM
relative IC50 (UT-SCC-81; [12]): 0.175 µM
relative IC50 (UT-SCC-81; [9]): 0.0532 µM
relative IC50 (UT-SCC-81; [11]): 0.0149 µM
relative IC50 (UT-SCC-81; [10]): 0.0744 µM
relative IC50 (UT-SCC-28; [12]): > 0.989 µM
relative IC50 (UT-SCC-28; [9]): 0.0265 µM
relative IC50 (UT-SCC-42B; [8]): 0.00972 µM
relative IC50 (UT-SCC-42B; [9]): 0.0478 µM
relative IC50 (UT-SCC-42B; [10]): 0.0543 µM
relative IC50 (UT-SCC-44; [8]): 0.0196 µM
relative IC50 (UT-SCC-44; [11]): 0.0413 µM
relative IC50 (UT-SCC-106A; [8]): 0.00897 µM
relative IC50 (UT-SCC-106A; [9]): 0.0138 µM
relative IC50 (UT-SCC-106A; [11]): 0.101 µM
relative IC50 (UT-SCC-106A; [10]): 0.0193 µM
relative IC50 (UT-SCC-24A [2]; [9]): 0.00541 µM
relative IC50 (UT-SCC-24A [2]; [11]): 0.0173 µM
relative IC50 (UT-SCC-24A [2]; [10]): 0.00648 µM
Compound: Cn1cnc2c(F)c(Nc3ccc(Br)cc3F)c(C(=O)NOCCO)cc21 [Binimetinib]
maximal % inhibition of viability (UT-SCC-24A [3]; [8]): 79.6 ± 1.9%
maximal % inhibition of viability (UT-SCC-24A [3]; [12]): 37 ± 7.2%
maximal % inhibition of viability (UT-SCC-24A [3]; [9]): 72.5 ± 1.2%
maximal % inhibition of viability (UT-SCC-24A [3]; [11]): 35.6 ± 4.6%
maximal % inhibition of viability (UT-SCC-24A [3]; [10]): 68.3 ± 1.5%
drug sensitivity score (UT-SCC-24A [4]; [8]): 24.4 ± 3.8 DSS
drug sensitivity score (UT-SCC-24A [4]; [12]): 9.83 ± 4.3 DSS
drug sensitivity score (UT-SCC-24A [4]; [9]): 19.9 ± 0.72 DSS
drug sensitivity score (UT-SCC-24A [4]; [11]): 6.9 ± 0.85 DSS
drug sensitivity score (UT-SCC-24A [4]; [10]): 18.1 ± 0.64 DSS
drug sensitivity score (UT-SCC-24B [5]; [8]): 6.43 ± 1 DSS
drug sensitivity score (UT-SCC-24B [5]; [12]): 6.03 ± 2.4 DSS
drug sensitivity score (UT-SCC-24B [5]; [9]): 5.6 ± 0.53 DSS
drug sensitivity score (UT-SCC-24B [5]; [11]): 2.7 ± 0.61 DSS
drug sensitivity score (UT-SCC-24B [5]; [10]): 9.3 ± 1.2 DSS
drug sensitivity score (UT-SCC-14 [6]; [8]): 6 ± 4.4 DSS
drug sensitivity score (UT-SCC-14 [6]; [12]): 4.73 ± 3.5 DSS
drug sensitivity score (UT-SCC-14 [6]; [9]): 5.1 ± 3.6 DSS
drug sensitivity score (UT-SCC-14 [6]; [11]): 4.27 ± 4.4 DSS
drug sensitivity score (UT-SCC-14 [6]; [10]): 2.27 ± 2 DSS

relative IC50 (UT-SCC-24B [1]; [8]): 0.309 µM
relative IC50 (UT-SCC-24B [1]; [12]): 0.808 µM
relative IC50 (UT-SCC-24B [1]; [9]): 0.317 µM
relative IC50 (UT-SCC-24B [1]; [11]): 1.43 µM
relative IC50 (UT-SCC-24B [1]; [10]): 0.184 µM
relative IC50 (UT-SCC-73; [8]): 0.0385 µM
relative IC50 (UT-SCC-73; [9]): 0.0318 µM
relative IC50 (UT-SCC-73; [11]): 0.132 µM
relative IC50 (UT-SCC-73; [10]): 0.0644 µM
relative IC50 (UT-SCC-14 [7]; [12]): 0.238 µM
relative IC50 (UT-SCC-14 [7]; [9]): 0.146 µM
relative IC50 (UT-SCC-14 [7]; [11]): 0.299 µM
relative IC50 (UT-SCC-8; [8]): 0.259 µM
relative IC50 (UT-SCC-8; [12]): 1.76 µM
relative IC50 (UT-SCC-8; [9]): 0.41 µM
relative IC50 (UT-SCC-8; [10]): 0.602 µM
relative IC50 (UT-SCC-42A; [8]): 0.0363 µM
relative IC50 (UT-SCC-42A; [12]): 0.0941 µM
relative IC50 (UT-SCC-42A; [9]): 0.0208 µM
relative IC50 (UT-SCC-42A; [10]): 0.0415 µM
relative IC50 (UT-SCC-40; [8]): 0.0153 µM
relative IC50 (UT-SCC-40; [12]): 0.118 µM
relative IC50 (UT-SCC-40; [9]): 0.0335 µM
relative IC50 (UT-SCC-40; [11]): 0.0833 µM
relative IC50 (UT-SCC-40; [10]): 0.111 µM
relative IC50 (UT-SCC-81; [8]): 0.0142 µM
relative IC50 (UT-SCC-81; [12]): 0.924 µM
relative IC50 (UT-SCC-81; [9]): 0.0616 µM
relative IC50 (UT-SCC-81; [10]): 0.85 µM
relative IC50 (UT-SCC-42B; [8]): 0.0166 µM
relative IC50 (UT-SCC-42B; [9]): 0.0795 µM
relative IC50 (UT-SCC-42B; [11]): 0.757 µM
relative IC50 (UT-SCC-42B; [10]): 0.218 µM
relative IC50 (UT-SCC-44; [8]): 0.0562 µM
relative IC50 (UT-SCC-44; [12]): 0.417 µM
relative IC50 (UT-SCC-44; [9]): 0.0584 µM
relative IC50 (UT-SCC-44; [11]): 0.569 µM
relative IC50 (UT-SCC-44; [10]): 0.0617 µM
relative IC50 (UT-SCC-106A; [8]): 0.0152 µM
relative IC50 (UT-SCC-106A; [9]): 0.0155 µM
relative IC50 (UT-SCC-106A; [11]): 0.498 µM
relative IC50 (UT-SCC-106A; [10]): 0.0257 µM
relative IC50 (UT-SCC-24A [2]; [8]): 0.00314 µM
relative IC50 (UT-SCC-24A [2]; [9]): 0.00876 µM
relative IC50 (UT-SCC-24A [2]; [10]): 0.00997 µM
Compound: COc1cc(F)c(F)c(Nc2ccc(I)cc2F)c1NS(=O)(=O)C1(C[C@H](O)CO)CC1 [Refametinib]
maximal % inhibition of viability (UT-SCC-24A [3]; [8]): 84.4 ± 1.8%
maximal % inhibition of viability (UT-SCC-24A [3]; [12]): 73.9 ± 0.81%
maximal % inhibition of viability (UT-SCC-24A [3]; [9]): 80.4 ± 2.4%
maximal % inhibition of viability (UT-SCC-24A [3]; [11]): 59.7 ± 7.4%
maximal % inhibition of viability (UT-SCC-24A [3]; [10]): 75.4 ± 3.4%
drug sensitivity score (UT-SCC-24A [4]; [8]): 34.3 ± 1.1 DSS
drug sensitivity score (UT-SCC-24A [4]; [12]): 17.3 ± 2.2 DSS
drug sensitivity score (UT-SCC-24A [4]; [9]): 29.2 ± 1.3 DSS
drug sensitivity score (UT-SCC-24A [4]; [11]): 13 ± 1.6 DSS
drug sensitivity score (UT-SCC-24A [4]; [10]): 26.7 ± 0.62 DSS
drug sensitivity score (UT-SCC-24B [5]; [8]): 12.4 ± 0.7 DSS
drug sensitivity score (UT-SCC-24B [5]; [12]): 10.4 ± 1.8 DSS
drug sensitivity score (UT-SCC-24B [5]; [9]): 11.8 ± 0.98 DSS
drug sensitivity score (UT-SCC-24B [5]; [11]): 6.87 ± 1 DSS
drug sensitivity score (UT-SCC-24B [5]; [10]): 16.4 ± 2.1 DSS
drug sensitivity score (UT-SCC-14 [6]; [8]): 13.5 ± 4.8 DSS
drug sensitivity score (UT-SCC-14 [6]; [12]): 9.87 ± 1.7 DSS
drug sensitivity score (UT-SCC-14 [6]; [9]): 10.9 ± 3.1 DSS
drug sensitivity score (UT-SCC-14 [6]; [11]): 8.53 ± 0.47 DSS
drug sensitivity score (UT-SCC-14 [6]; [10]): 5.8 ± 2.8 DSS
